Reference: ChEMBL document CHEMBL1157513, “Enhanced anti-influenza A virus activity of (-)-epigallocatechin-3-O-gallate fatty acid monoester derivatives: effect of alkyl chain length” (Bioorg Med Chem Lett, 2008)

What was measured:
Influenza A virus [1] = experiment: Antiviral activity against Influenza (A/PR8/34(H1N1)); type: functional, organism-based; conditions: A/Puerto Rico/8/1934(H1N1)
Influenza A virus [2] = experiment: Antiviral activity against Influenza A/PR8/34(H1N1)) in dog MDCK cells; type: functional, organism-based; conditions: A/Puerto Rico/8/1934(H1N1)
[3] = Cytotoxicity against MDCK cells by MTT assay; type: cell-based, Canis lupus familiaris; conditions: dog
[4] = Selectivity, ratio of CC50 for dog MDCK cells to EC50 for Influenza (A/PR8/34(H1N1)) in MDCK cells
[5] = Selectivity, ratio of CC50 for dog MDCK cells to EC50 for Influenza (A/PR8/34(H1N1))

Compound	EC50 (Influenza A virus [1]) [µM]	EC50 (Influenza A virus [2]) [µM]	CC50 [3] [µM]	Ratio CC50/EC50 [4]	Ratio CC50/EC50 [5]
CC(=O)Oc1cc(OC(C)=O)c2c(c1)O[C@H](c1cc(OC(C)=O)c(OC(C)=O)c(OC(C)=O)c1)[C@H](OC(=O)c1cc(OC(C)=O)c(OC(C)=O)c(OC(C)=O)c1)C2	8.49	77	–	–	–
O=C(O[C@@H]1Cc2c(O)cc(O)cc2O[C@@H]1c1cc(O)c(O)c(O)c1)c1cc(O)c(O)c(O)c1 [EPIGALOCATECHIN GALLATE]	0.391	94.6	275	2.91	703
